The term IC50 denotes the concentration at which inhibition is half-maximal.

This note sets out measurements from ChEMBL document CHEMBL4152276, “Design, synthesis and biological evaluation of N-phenyl-(2,4-dihydroxypyrimidine-5-sulfonamido)benzoyl hydrazide derivatives as thymidylate synthase (TS) inhibitors and as potential antitumor drugs” (Eur J Med Chem, 2018).

A value given as a limit tells only on which side of the number the result lay.

Holding throughout (type): functional, cell-based
In experiment [1] the test system is A549. In words: Antiproliferative activity against human A549 cells after 24 hrs by MTT assay. The following applies: A549, 24 h. For orientation: Tetrazolium dyes change colour on reduction, which living cells bring about.
Experiment [2] deals with OVCAR-3. The experiment can be described thus: Antiproliferative activity against human OVCAR3 cells after 24 hrs by MTT assay. The following applies: OVCAR-3, 24 h.
The test system of experiment [3] is SGC-7901. The experiment can be described thus: Antiproliferative activity against human SGC7901 cells after 24 hrs by MTT assay. As to conditions: SGC-7901, 24 h.
The subject of experiment [4] is MDA-MB-231. The experiment can be described thus: Antiproliferative activity against human MDA-MB-231 cells after 24 hrs by MTT assay. The following applies: MDA-MB-231, 24 h.

For the molecule `Cc1ccc(C(=O)NNC(=O)c2ccccc2NS(=O)(=O)c2cnc(O)nc2O)cc1`, the 50% inhibitory concentration (IC50) was greater than 20 µM in experiment [1], 12.9 µM in experiment [2], 15.5 µM in experiment [3] and greater than 20 µM in experiment [4].
With `Cc1cccc(NNC(=O)c2cccc(NS(=O)(=O)c3cnc(O)nc3O)c2)c1`, the IC50 in experiment [1], in experiment [2], in experiment [3] and in experiment [4] was greater than 20 µM in each case.
As for `Cc1ccccc1NNC(=O)c1ccccc1NS(=O)(=O)c1cnc(O)nc1O`, the IC50 in experiment [1], in experiment [2], in experiment [3] and in experiment [4] was greater than 20 µM each time.
As for `O=C(NNc1ccccc1F)c1ccc(NS(=O)(=O)c2cnc(O)nc2O)cc1`, the IC50 in experiment [1] is 11.7 µM; in experiment [2] it was greater than 20 µM; in experiment [3] it was 16 µM; in experiment [4], greater than 20 µM.
As for `Cc1cccc(NNC(=O)c2ccccc2NS(=O)(=O)c2cnc(O)nc2O)c1`, the IC50 in experiment [1], in experiment [2], in experiment [3] and in experiment [4] was greater than 20 µM each time.
For the molecule `O=C(NNC(=O)c1ccccc1NS(=O)(=O)c1cnc(O)nc1O)c1ccccc1Cl`, the IC50 in experiment [1] was determined as 5.29 µM; in experiment [2], 18.2 µM; in experiment [3], 2.41 µM; in experiment [4], 8.31 µM.
As to `CCCCOc1ccc(C(=O)NNC(=O)c2cccc(NS(=O)(=O)c3cnc(O)nc3O)c2)cc1`, the IC50 in experiment [1] is 7.76 µM; in experiment [2] it was 9.2 µM; in experiment [3] it was 7.37 µM; in experiment [4] it was 17 µM.
The matching figures for `O=C(NNc1ccccc1F)c1ccccc1NS(=O)(=O)c1cnc(O)nc1O`: 9.61 µM, 9.57 µM, greater than 20 µM and greater than 20 µM.
In the same order, the values of `O=C(NNc1ccccc1Cl)c1ccccc1NS(=O)(=O)c1cnc(O)nc1O` are 5.48 µM, 14.1 µM, greater than 20 µM and 18.9 µM.
With `O=C(NNC(=O)c1ccccc1F)c1cccc(NS(=O)(=O)c2cnc(O)nc2O)c1`, the half-maximal inhibitory concentration (IC50) in experiment [1] was 10.8 µM; in experiment [2], 10.8 µM; in experiment [3], greater than 20 µM; in experiment [4], greater than 20 µM.
Turning to `O=C(NNC(=O)c1ccccc1Cl)c1ccc(NS(=O)(=O)c2cnc(O)nc2O)cc1`, the IC50 in experiment [1] was found to be 1.9 µM; in experiment [2] it was 5.22 µM; in experiment [3], 3.24 µM; in experiment [4] it was 13.9 µM.
The matching figures for `Cc1ccc(C(=O)NNC(=O)c2ccc(NS(=O)(=O)c3cnc(O)nc3O)cc2)cc1`: 15.9 µM, greater than 20 µM, greater than 20 µM and greater than 20 µM.
As for `Cc1ccccc1C(=O)NNC(=O)c1ccc(NS(=O)(=O)c2cnc(O)nc2O)cc1`, the IC50 is 15.1 µM in experiment [1], greater than 20 µM in experiment [2], greater than 20 µM in experiment [3] and 7.04 µM in experiment [4].
Regarding `O=C(NNC(=O)c1cccc(NS(=O)(=O)c2cnc(O)nc2O)c1)c1ccc(F)cc1`, the IC50 in experiment [1], in experiment [2], in experiment [3] and in experiment [4] was greater than 20 µM in each case.
In the case of `Cc1ccc(C(=O)NNC(=O)c2cccc(NS(=O)(=O)c3cnc(O)nc3O)c2)cc1`, the IC50 in experiment [1] was greater than 20 µM; in experiment [2], greater than 20 µM; in experiment [3] it was 10.1 µM; in experiment [4], greater than 20 µM.
Take `Cc1ccccc1C(=O)NNC(=O)c1cccc(NS(=O)(=O)c2cnc(O)nc2O)c1`: the IC50 was 8.01 µM in experiment [1], greater than 20 µM in experiment [2], greater than 20 µM in experiment [3] and 18.1 µM in experiment [4].
On to `O=C(NNC(=O)c1ccccc1NS(=O)(=O)c1cnc(O)nc1O)c1ccccc1F`, for which the IC50 in experiment [1] was 7.15 µM; in experiment [2], 15.3 µM; in experiment [3], greater than 20 µM; in experiment [4] it was greater than 20 µM.
As for `Cc1ccccc1NNC(=O)c1ccc(NS(=O)(=O)c2cnc(O)nc2O)cc1`, the IC50 was 14.5 µM in experiment [1], greater than 20 µM in experiment [2], greater than 20 µM in experiment [3] and greater than 20 µM in experiment [4].
